Data taken from PubChem BioAssay AID449762 (Southern Research Specialized Biocontainment Screening …, 2010).
Records with an inconclusive call do not appear.

System: M. tuberculosis H37Rv growth inhibition, 7H9 media
Experiment: M. tuberculosis growth inhibition, HTS (AID 449762);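 also: bacterial growth assessed after seven days of incubation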
Conditions: for IC90: measured here: IC90 growth inhibition

Row | Structure (SMILES) | IC50 [µM] | IC90 [µM]
1 | CC(=O)OCC1O[C@@H](O[C@@H]2C[C@H]3C(C)(C)[C@H](OC(C)=O)CC[C@]3(C)[C@H]3CC[C@]45C[C@]4(CC[C@H]5[C@@H](C)C[C@@H](O)[C@H](O)C(C)(C)O)[C@@]32C)[C@H](O)[C@@H](O)[C@@H]1O (stereo partly drawn) | 30.7 | 39.6
2 | Cc1ccc(S(=O)(=O)CNC(=S)c2ccc3ccccc3c2)cc1 | – | > 100
3 | O=C(NNC(=O)C12CC3CC(CC(C3)C1)C2)c1ccccn1 | 5.36 | 23.5
4 | CN(CCCCCCCCCCN(C)C(=O)Oc1cccc([N+](C)(C)C)c1)C(=O)Oc1cccc([N+](C)(C)C)c1 | 1.49 | 4.04
5 | NN/C(=C\[N+](=O)[O-])Nc1ccc(Cl)cc1 | 45.9 | > 100
6 | CC(=O)c1c(C)n(C)c2ccc(OC(=O)c3ccc([N+](=O)[O-])cc3)cc12 | 11.2 | > 100
7 | O=C1C2C(c3ccccc3)(C(=O)N1c1ccc(Cl)cc1)C2(c1ccccc1)c1ccccc1 (stereo not drawn) | 11.5 | 12.4
8 | CCOc1ccc(NC(=S)Nc2cc(-c3ccccc3)[nH]n2)cc1 | 92.6 | > 100
9 | CCNc1nc(NCC)nc(N/N=C/c2ccc([N+](=O)[O-])o2)n1 | 0.99 | 1.67
10 | CCN1/C(=C/c2ccc3cc(C)ccc3[n+]2CC)Sc2ccccc21 | 1.41 | 1.61
11 | Cc1ccccc1Cn1ccc(=NCc2ccccc2)cc1 | 4.39 | 12
12 | CSCCCNC(=S)N1CCN(c2ccc(C(C)=O)cc2)CC1 | 24.8 | 44.1
13 | Clc1ccc(CSc2ncn[nH]2)cc1 | – | > 100
14 | CCCCCNc1nc(N2CCCC2)c2c(c1C#N)CCN(C)C2 | 83.7 | > 100
15 | Cc1ccc(NS(=O)(=O)c2ccc(NC(=O)CN(c3cc([N+](=O)[O-])ccc3C)S(C)(=O)=O)cc2)c(C)c1 | 41.3 | > 100
16 | O=c1c(-c2cnn(-c3ccccc3)c2)coc2cc(O)ccc12 | 12.1 | > 100
17 | COc1ccc(C(=O)/C=C/Sc2nc3ccccc3o2)cc1 | 37.8 | > 100
18 | CCOC(=O)c1nnc(-c2ccccc2)nc1NCc1ccccc1 | 14.6 | > 100
19 | COc1ccccc1C1c2ccc3ccccc3c2Oc2ncn(CCN(C)C)c(=N)c21 (stereo not drawn) | 22.3 | 24.9
20 | COc1ccc(C)cc1Nc1n[n+](-c2ccccc2)c(-c2c(Cl)cccc2Cl)s1 | 19.6 | 25.9
21 | O=C(Nc1ncc(Cc2ccccc2Cl)s1)C1=NCCN1 | 0.43 | 92.9
22 | CCCSc1nnc(Sc2nnnn2-c2ccccc2)s1 | 10.2 | 33

Row | Structure (SMILES) | IC50 [µM] | IC90 [µM]
23 | Cc1cc(=O)n2cccc(O)c2n1 | 5.94 | 15.6
24 | Cc1cc(/C=C\c2ccc3cc(N(C)C)ccc3[n+]2C)c(C)n1-c1ccccc1 | 1.86 | 3.19
25 | CCCNc1nc(-c2cc(C(=O)Nc3ccccc3)on2)cc(C(C)C)n1 | 35 | 59.3
26 | CCC(=O)c1ccc(OCC(O)CN2CCN(c3cccc(C(F)(F)F)c3)CC2)cc1 (stereo not drawn) | 19.9 | 28
27 | C=CCNc1oc(-c2ccc(-c3ccccc3)cc2)nc1C#N | 12.2 | 13.7
28 | O=C(NNc1nc2ccccc2s1)c1ccccc1F | 22.2 | > 100
29 | CC1(C)CC(=O)C2=C(C1)NC(Nc1nc3ccccc3o1)=NC2c1ccccn1 (stereo not drawn) | < 0.2 | 2.31
30 | Cc1ccsc1/C=C1\SC(N2CCOCC2)=NC1=O | 21.9 | 34.1
31 | Cc1cc(Cl)ccc1NNC(=O)CCc1ccccc1 | 94.5 | > 100
32 | CCc1ccc(C2=NN(c3ccc(S(N)(=O)=O)cc3)C(c3ccc(F)cc3)C2)cc1 (stereo not drawn) | 36.2 | 48.7
33 | O=C1c2ccccc2S(=O)(=O)c2cc(C(=O)N3CCN(c4c(Cl)cncc4Cl)CC3)ccc21 | 32 | 46.5
34 | CCCCOc1ccc(C(=O)N/N=C/c2ccc(OCCN3CCCCC3)c(OC)c2)cc1 | 28.8 | 44.6
35 | Oc1ccc2ccccc2c1N=Nc1nccs1 | < 0.2 | 2.01
36 | CCOC(=O)CSc1nnc(SCCN2C(=O)c3ccccc3C2=O)s1 | 4.3 | 30
37 | CCOC(=O)N1CCc2c(sc(NC(=O)c3ccc(Cl)s3)c2C(N)=O)C1 | 6.17 | 20.5
38 | O=C(/C=C/c1ccco1)Nc1cccc(-c2nc3ccccc3[nH]2)c1 | 78.5 | > 100
39 | O=C(CSCc1ccc([N+](=O)[O-])cc1)N/N=C/c1ccncc1 | 3.47 | 10.3
40 | CC(=O)Oc1ccc(/C=N\NC(=O)c2cc3c(ccc4ccccc43)o2)cc1 | 58.5 | > 100
41 | CC(CC(=O)Nc1ccc(Cl)c([N+](=O)[O-])c1)c1ccccc1 (stereo not drawn) | 16 | 40.7
42 | CCc1ccc(-c2csc(-c3c[nH]c4ccccc34)n2)cc1 | 10.7 | 21.7
43 | O=C(c1cccc([N+](=O)[O-])c1)N1CCN(c2ccc(N3CCOCC3)nn2)CC1 | 19.7 | 26.6
44 | Cc1ccc(OC(=O)c2oc3ccc(F)cc3c2C)c(C)c1 | 6.82 | 18.6

Row | Structure (SMILES) | IC50 [µM] | IC90 [µM]
45 | O=C1C2(Cl)C3(Cl)C4(Cl)C(Cl)(Cl)C5(Cl)C3(Cl)C1(Cl)C5(Cl)C24Cl (stereo not drawn) | 46.7 | 53
46 | COc1ccccc1N(C)S(=O)(=O)c1ccc(C(=O)Nc2ccc3nc(C)sc3c2)cc1 | 58.2 | > 100
47 | C=CCOc1ccc(C2C(C#N)=C(N)N(Nc3ccccc3)C3=C2C(=O)CC(C)(C)C3)cc1OC (stereo not drawn) | 30.1 | 68.2
48 | Cc1cc(O)c2c(c1)C(=O)c1cc(O)cc(O)c1C2=O | 91.5 | > 100
49 | COc1ccc(C2CC2/C(C)=N/OC(=O)c2ccc(F)cc2)cc1 (stereo not drawn) | 13.7 | 51.6
50 | COC(=O)c1ccc(NC(=S)NC(=O)C2CCC2)cc1 | 41.9 | 55.9
51 | COc1cc(/C=N/NC(=O)COc2ccc(C)cc2)ccc1OC(=O)c1cccs1 | 18.1 | 30.2
52 | O=[N+]([O-])c1cc(C=Nc2ccc3ccccc3c2)ccc1Br | 33.5 | 45.6
53 | CCOC(=O)COc1ccc(/C=C2\NC(=S)N(CC)C2=O)cc1 | 1.17 | 8.47
54 | CCOc1ccc(/C=C/C2=Cc3c(sc(NC(=O)CSc4n[nH]c(N)n4)c3C#N)C(C)(C)C2)cc1 | – | > 100
55 | CC(=O)/C(=C\Nc1ccc(OCc2ccccc2)cc1)c1ccccc1 | 2.28 | 12.1
56 | CCOC(=O)c1c(/N=C/N(C)C)sc(/C=N/Nc2ccccc2)c1-c1ccccc1Cl | 81.8 | > 100
57 | CC(C)(C)C1CCc2nc(NC(=O)Cc3cn4ccsc4n3)sc2C1 (stereo not drawn) | 15.5 | 39.6
58 | OC(CNCCc1ccc(C(F)(F)F)cc1)COC(c1ccccc1)c1ccccc1 (stereo not drawn) | 16.7 | 21.2
59 | C#CCOCCOCCOCCNc1nc(N2CCN(C(=O)C(Cc3ccc(O)cc3)n3cc(C(N)CC(C)C)nn3)CC2)nc(N2CCN(C(=O)C(Cc3cc4ccccc4[nH]3)n3cc(C(N)Cc4ccc(O)cc4)nn3)CC2)n1 (stereo not drawn) | 6.03 | 6.93
60 | COc1cc(/C=C/C(=O)c2c(O)n(CCc3ccccc3)c(=O)[nH]c2=O)ccc1O | 4.59 | 11.5
61 | CCN(Cc1ccccc1)c1ccc(/C=N/N=C(N)N)cc1 | 17.1 | 30.1
62 | O=C(C1=C[C@@H](c2csc3ccccc23)C[C@@H](OCCCCO)O1)N1CCN(Cc2ccc3c(c2)OCO3)CC1 | 28.5 | 47.8
63 | S=C(NN=C1CCN(Cc2ccccc2)CC1)NC1CCCCC1 | 16.7 | 25.3
64 | CCc1ccc(NC(=S)/N=C(\N)Nc2nc(C)c3cc(CC)ccc3n2)cc1 | 7.31 | 40
65 | CCOc1[nH]n(-c2ccccc2)c(=O)c1C=Nc1ccc(OC)cc1 | 36.5 | > 100
66 | CCOC(=O)c1[nH]c(CN2CCN(c3ccc(OC)cc3)CC2)c(C(=O)OCC)c1C | 23 | 26

Row | Structure (SMILES) | IC50 [µM] | IC90 [µM]
67 | CCn1c(SCC(=O)OC2CCCCC2)nc2ccccc2c1=O | 21.7 | 37.7
68 | CCOC(=O)CCCc1ccc(/C(C)=N/NC(N)=S)cc1 | 6.5 | 14.7
69 | O=C(O)Cc1c[nH]c2ccc(O)cc12 | – | > 100
70 | Cn1nc(-c2ccccn2)nc2c(=O)n(C)c(=O)nc1-2 | 9.04 | 14.5
71 | CSc1ccccc1OCc1cc(C(=O)N2CCC(Oc3cccnc3)CC2)no1 | 24 | 27.6
72 | COc1cccc2c1C(CO)N1C(C#N)C3CC(C(=O)O)C(C1C2)N3C (stereo not drawn) | 2.69 | 2.98
73 | O=C(CSC(=S)N1CCCC1)c1cc(Br)cc(Br)c1O | 23.9 | 36.6
74 | COc1ccccc1/C(C)=N/NC(=S)NCc1ccccc1 | 23.3 | 26.6
75 | COc1ccc(CNc2ncnc3c2[nH]c2cc(OC)c(OC)cc23)cc1 | 5.2 | 14.9
76 | Cc1cc(C)n2nc(/C(C#N)=C/c3ccccn3)c(C#N)c2n1 | 0.97 | 17.6
77 | COc1ccc(N(CC(=O)Nc2cc(Cl)ccc2C)S(=O)(=O)c2c(C)n[nH]c2C)cc1 | 45.8 | 51.2
78 | c1ccc(Nc2nc(N3CCCCC3)nc(N3CCNCC3)n2)cc1 | 46.1 | 68.9
79 | COc1cc(C#Cc2c(-c3cncn3C)n(C)c3ccc(-c4cnc(N5CCOCC5)nc4)cc23)cc(OC)c1 | 45.8 | 51.7
80 | CCc1ccc(-c2cc(C)no2)cc1S(=O)(=O)NCCCN1CCN(c2ccccc2)CC1 | 34.7 | 44.7
81 | COC(=O)C(CCSC)NC(=O)c1cn(-c2ccc(OC)cc2)c(=O)c2ccccc12 (stereo not drawn) | 12 | > 100
82 | Cc1cc(-n2c(C)cc(C(=O)COc3ccc4ccc(=O)oc4c3)c2C)no1 | 68.6 | > 100
83 | Cc1cnc(NC(=O)NCC2CCCC(CNC(=O)Nc3ncc(C)s3)C2)s1 (stereo not drawn) | 24.8 | 28.2
84 | CSc1nc2nc3c(c(=O)n2[nH]1)CCCC3 | 20.5 | > 100
85 | C(=N\NC1=Nc2cccc3cccc1c23)/c1cccnc1 | 13.4 | > 100
86 | Cc1nc(N2CCN(c3ccccn3)CC2)c2c(C)c(C(=O)N3CCN(c4ccc(F)cc4)CC3)sc2n1 | 11.1 | 12.5
